Structures can show the parent of a compound that is named as a salt.
Key:
[1] = tested on: gp-170 positiv (EPG85-257RDB) Magencarcinomazellen; assay: In vitro proliferation inhibition (compound alone); format: cell-based
Protocol: (§1) Die Intensität der unbehandelten Mdr-Zellen entsprach der 100%-igen Effluxpumpemktivität. Bei mehrfach wiederholten unabhängigen Versuchen in Deutschland und in Ungam wurde eine Inhibition der Effluxpumpen bereits bei 40,0 ng/ml Konzentration zwischen 20-45% gefunden und bei etwa 200,0 ng/ml Konzentration eine 80%-ige Hemmung erreicht. Der 100%-ige Hemmungsbereich liegt etwa zwischen 300-800 ng/ml. Es gab zwar eine erhebliche Schwankung bei der Wiederholung, jedoch fiel immer die 100%-ige Hemmung in den Nanogramm Bereich. Bei der Überprüfung von Mdr-Gen-Expression mittels PCR wurde kein Einfluss dieser ALIS-Verbindung auf die Reduktion oder Verstärkung der Mdr RNA Synthese gefunden. Das ist deshalb günstig, weil die Mdr auch eine wichtige physiologische Rolle bei den Entgiflungsmechanismen der gesunden Zellen (z.B. Nierenzellen) spielt und nach der Beendigung der Therapie das aktive gp-170 Protein wieder produziert werden kann. Außerdem wirkt ALIS-409 auch allein cancerostatisch - und zwar gegenüber gp-170 positiv (EPG85-257RDB) Magencarcinomazellen in vitro. Es wurde die folgende Proliferationshemmung nachgewiesen: 41% bei 100 ng/ml und 74% bei 300 ng/ml.

[2] = Water solubility (stated in heading)
[3] = tested on: gp-170 Protein; assay: Rhodamine-123 efflux pump inhibition assay (cell sorter fluorescence FL1); format: cell-based, Maus; settings: for 100%-ige Hemmungsbereich (concentration range giving 100% inhibition of the efflux pump): considerable variation between repeats
Protocol: 0,5 ml 2x10^6 /ml L-5178Y parental und Mdr Mauslymphomazellen wurden 10 Min. lang mit 40,0 200,0 und 1000 ng ALIS-409 inkubiert. Danach wurden die Zellen mit Rhodamin-123 Indikatorfarbstoff (Endkonzentration: 5,2 µMol) bei 37C° für 20 Min. inkubiert. Die Zellen wurden mit PBS gewaschen und die Fluoreszenz-Intensität (FL1) mittels Cellsorter gemessen. Die Intensität der unbehandelten parentalen Zellen entsprach der 100%igen Hemmung.
as §1
Die methodische Überprüfung war mit dem Beispiel 3 identisch. Auch die Inhibition der Effluxpumpenaktivitäten waren ähnlich groß. Im Konzentrationsbereich 200-500 ng/ml konnte eine 100%-ige Inhibition erreicht werden. […] Die schnelle Hemmung nach einer 10-minütigen Inkubatioszeit weist auf eine direkte Interaktion zwischen der Substanz und dem gp-170 Protein hin.

[4] = tested on: Mdr RNA Synthese; assay: PCR check of Mdr gene expression; format: cell-based
Protocol: as §1
Die methodische Überprüfung war mit dem Beispiel 3 identisch. Auch die Inhibition der Effluxpumpenaktivitäten waren ähnlich groß. Im Konzentrationsbereich 200-500 ng/ml konnte eine 100%-ige Inhibition erreicht werden. […]

[5] = In vivo toxicity test in mice; design: species or system Mäuse; settings: for survival: mouse, in vivo, 10 mg/kg, 10,0 mg/kg, read-out: Überleben der Mäuse
Text: Der Erfindung liegt die Aufgabe zugrunde, Verbindungen zur Verfügung zu stellen, mit denen sich die Wirksamkeit von Zytostatika verbessern lässt. Die Aufgabe wurde erfindungsgemäß durch die Bereitstellung von neuen organischen Siliciumverbindungen der Formel I gelöst. Die erfindungsgemäßen neuen substituierten Disiloxane der allgemeinen Formel I [drawing 2] enthalten folgenden Substituenten: • R^1 = Methyl, Ethyl, Phenyl oder tertiär Butyl • R^2 = X (Halogen: Cl, Br, F), CX3, (para, ortho, meta), • n = 0-1, m = 1-3 • Q = Alkyl, Cycloalkyl, sekundäres Amin, Morpholin, substituiertes Piperazin, worin [drawing 3] • R^3 = Methyl, Ethyl, Butyl, Phenyl, Benzyl, -(CH2)pSi(R^4)3 mit p = 1 - 3 und R^4 = Methyl, Ethyl bedeuten. Die erfindungsgemäß bereitgestellten Verbindungen werden durch Umsetzung von substituierten Alkyl-dichlor-silanen mit Aryl-Grignard-Verbindungen gewonnen und daraus durch acide Hydrolyse Disiloxane, die ihrerseits im Fall von Halogen-Alkylen mit Aminen umgesetzt werden. In speziellen Fällen wird Magnesium mit 4-Fluor-brombenzol umgesetzt und daraus durch Reaktion mit 3-Chlorpropyl-methyl-dichlorsilan das Zwischenprodukt 1,3-bis(4-fluorophenyl)-1,3-dimethyl-1,3-bis(3-chloropropyl)-disiloxan gewonnen. Dieses Produkt wird seinerseits mit Morpholin zu ALIS 409 oder mit 4-Butyl-piperazin zu ALIS 421 (Beispiele 2 und 3) umgesetzt. Überraschendweise hat sich herausgestellt, dass es sich bei den erfindungsgemäßen neuen substituierten Disiloxane um biologisch wirksame, nicht toxische Verbindungen handelt, die zur Umkehrung der Multidrogeresistenz (Mdr) der malignen Tumorzellen und pathogenen Erreger fähig sind und die Effluxpumpenaktivität der malignen Mdr-Tumorzellen und die Pgp-Resistenz von parasitären Zellen, Pilzen sowie von Bakterien bereits im ng/ml-Konzentrationsbereich stark inhibieren. Die neuen substituierten Disiloxane finden Verwendung als Zytostatika und in der Chemotherapie - auch in Kombination mit anderen Mitteln. Es ist überraschend, dass sie eine starke Chemosensitation der resistenten Mdr-Tumorzellen verursachen und ihre Effluxpumpenaktivität unterdrücken. Dadurch lässt sich die intrazelluläre Chemotherapeutikum-Konzentration so hoch ansetzen, dass kein Unterschied mehr im Vergleich mit parentalen Zellen nachgewiesen werden kann. Die als ALIS-Verbindungen bezeichneten erfindungsgemäßen Substanzen sind dadurch gekennzeichnet, dass sie biologisch wirksam sind und die Effluxpumpenaktivität der malignen Mdr-Tumorzellen, Pgp-Resistenz von parasitären Zellen, Pilzen und Bakterien bereits im ng/ml-Konzentrationsbereich stark inhibieren. Auch in höheren Konzentration wirken sie in vivo nicht toxisch. Nach dem Zell-Substanz-Kontakt sind sie sofort wirksam. Die ALIS-Verbindungen sind dadurch gekennzeichnet, dass sie hauptsächlich die Wirksamkeit der Chemotherapie erhöhen, aber auch allein zytostatisch wirken. Die Toxizität der neuen Verbindungen wurde im Maussytem getestet. Das Ergebnis war überraschend gut. Trotz zehnfacher Überdosierung konnte der ID-50 Wert nicht ermittelt werden, da die Mäuse die Behandlung 100%-ig überlebt haben und kein Gewichtsverlust auftrat. In manchen Fällen bekamen die Mäuse scheinbar sogar mehr Appetit. Alle Ergebnisse weisen darauf hin, dass die erfindungsgemäß bereitgestellten Verbindungen zum Einsatz in der Chemotherapie von Tumoren bzw. von Infektionskrankheiten geeignet sind. […]

[6] = L-5178Y Mdr Mauslymphomazellen, 10 min incubation

## C[Si](CCCN1CCOCC1)(O[Si](C)(CCCN1CCOCC1)c1ccc(F)cc1)c1ccc(F)cc1 (centres unmarked) [ALIS-409, 1,3-Dimethyl-1,3-bis(4-fluorophenyl)-1,3-bis(3-morpholino-propyl)-disiloxan-dihydrochlorid]
[1]; 100 ng/ml, EPG85-257RDB, read-out: Proliferationshemmung
  inhibition at 0.1 µg/mL: 41%
[1]; 300 ng/ml, EPG85-257RDB, read-out: Proliferationshemmung
  inhibition at 0.3 µg/mL: 74%
[2]
  Wasserlöslichkeit: sehr gut wasserlöslich
[3]; 40,0 ng/ml, L-5178Y Mdr Mauslymphomazellen, 10 min incubation, repeated independent experiments
  Inhibition der Effluxpumpen: 20-45%
[3]; [6]
  100%-ige Hemmungsbereich (concentration range giving 100% inhibition of the efflux pump): 300 to 800 ng/mL
[3]; about 200,0 ng/ml, L-5178Y Mdr Mauslymphomazellen, 10 min incubation
  Hemmung (Effluxpumpen): 80%
[4]
  Einfluss auf die Mdr-Gen-Expression (Mdr RNA Synthese): kein Einfluss
[5]; 10,0 mg/kg
  Gewichtsverlust: ohne Gewichtsverlust
[5]
  survival: 100%

## CCCCN1CCN(CCC[Si](C)(O[Si](C)(CCCN2CCN(CCCC)CC2)c2ccc(F)cc2)c2ccc(F)cc2)CC1 (centres unmarked) [ALIS-421, 1,3-Dimethyl-1,3-bis(4-fluorophenyl)-1,3-bis{3-[1(4-butyl-piperazinyl)]-propyl}-disiloxan-tetrahydrochlorid]
[1]; comparison in words
  cancerostatischer Effekt allein: schwächer als bei ALIS 409
[2]
  Wasserlöslichkeit: sehr gut wasserlöslich
[3]; [6]
  100%-ige Hemmungsbereich (concentration range giving 100% inhibition of the efflux pump): 200 to 500 ng/mL
[3]; Mdr tumour cells, qualitative statement
  Inhibition der Effluxpumpenaktivität (in words): ähnlich groß
[4]
  Einfluss auf die Mdr-Gen-Expression (Mdr RNA Synthese): keinen Einfluss
[5]; 10,0 mg/kg
  Gewichtsverlust: ohne Gewichtsverlust
  Toxizität: nicht toxisch
[5]
  survival: 100%

From EP1432717B1, “SUBSTITUTED DISILOXANES, METHOD FOR THE PRODUCTION THEREOF AND THE USE THEREOF FOR REVERSAL OF MULTIDRUG RESISTANCE (MDR)” (Molnar, Jozsef, priority 2000, dated 2002)
